Source: PubChem BioAssay (NCI)
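Each compound was tested at five concentrations against cells in 96-well plates for 48 hours. The concentration for 50% growth inhibition is given as GI50. TGI: total growth inhibition.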

What was measured:
Assay in all cases: NCI tumour cell line growth inhibition, 48 h
[1] = tested on: NCI-H522 lung
[2] = tested on: SF-268 CNS
[3] = tested on: M14 melanoma
[4] = tested on: UACC-62 melanoma
[5] = tested on: TK-10 renal
[6] = tested on: SN12C renal
[7] = tested on: HT29 colon
[8] = tested on: BT-549 breast
[9] = tested on: LOX IMVI melanoma
[10] = tested on: UACC-257 melanoma
[11] = tested on: MDA-MB-231 breast
[12] = tested on: OVCAR-5 ovarian
[13] = tested on: COLO 205 colon
[14] = tested on: OVCAR-4 ovarian
[15] = tested on: SK-OV-3 ovarian
[16] = tested on: CCRF-CEM leukemia
[17] = tested on: SK-MEL-28 melanoma
[18] = tested on: MDA-MB-435
[19] = tested on: HOP-92 NSCLC
[20] = tested on: NCI-H226 lung
[21] = tested on: ACHN renal
[22] = tested on: HL-60(TB) leukemia
[23] = tested on: HCT-116 colon
[24] = tested on: A498 renal
[25] = tested on: EKVX NSCLC
[26] = tested on: SK-MEL-5 melanoma
[27] = tested on: T-47D breast
[28] = tested on: SNB-19 CNS
[29] = tested on: 786-0 renal
[30] = tested on: MALME-3M melanoma
[31] = tested on: KM12 colon
[32] = tested on: NCI-H23 lung
[33] = tested on: OVCAR-8 ovarian
[34] = tested on: SF-295 CNS
[35] = tested on: SNB-75 CNS
[36] = tested on: NCI-H460 lung
[37] = tested on: K-562 leukemia
[38] = tested on: SF-539 CNS
[39] = tested on: U251 CNS
[40] = tested on: RPMI-8226 leukemia
[41] = tested on: PC-3 prostate
[42] = tested on: A549 NSCLC
[43] = tested on: MOLT-4 leukemia
[44] = tested on: HOP-62 NSCLC
[45] = tested on: UO-31 renal
[46] = tested on: SR leukemia
[47] = tested on: CAKI-1 renal
[48] = tested on: HS 578T breast
[49] = tested on: IGROV1 ovarian
[50] = tested on: RXF 393 renal
[51] = tested on: NCI/ADR-RES ovarian
[52] = tested on: DU-145 prostate

O=C1c2c(c3c4cc(Br)ccc4[nH]c3c3ccc4ccccc4c23)C(=O)N1CCN1CCNCC1
GI50 [1]: 1.67 µM | TGI [1]: 7.46 µM | GI50 [2]: 12.3 µM | TGI [2]: 36.3 µM | GI50 [3]: 10.7 µM | TGI [3]: 25.7 µM | GI50 [4]: 12.8 µM | TGI [4]: 31.3 µM | GI50 [5]: 19.8 µM | TGI [5]: 38.1 µM | GI50 [6]: 13.5 µM | TGI [6]: 36.6 µM | GI50 [7]: 1.64 µM | TGI [7]: 3.11 µM | GI50 [8]: 13.1 µM | TGI [8]: 30.7 µM | GI50 [9]: 2.06 µM | TGI [9]: 5.3 µM | GI50 [10]: 12.9 µM | TGI [10]: 28.4 µM | GI50 [11]: 2.34 µM | TGI [11]: 6.32 µM | GI50 [12]: 2.88 µM | TGI [12]: 9.14 µM | GI50 [13]: 6.51 µM | TGI [13]: 27.7 µM | GI50 [14]: 12.3 µM | TGI [14]: 33.9 µM | GI50 [15]: 16.2 µM | TGI [15]: 30.8 µM | GI50 [16]: 0.947 µM | TGI [16]: 6.8 µM | GI50 [17]: 15.7 µM | TGI [17]: 35.1 µM | GI50 [18]: 3.12 µM | TGI [18]: 10.8 µM | GI50 [19]: 14.4 µM | TGI [19]: 28.7 µM | GI50 [20]: 10.8 µM | TGI [20]: 39.5 µM | GI50 [21]: 11.1 µM | TGI [21]: 27.4 µM | GI50 [22]: 6.78 µM | TGI [22]: 26 µM | GI50 [23]: 1.73 µM | TGI [23]: 3.13 µM | GI50 [24]: 16.1 µM | TGI [24]: 29.8 µM | GI50 [25]: 1.98 µM | TGI [25]: 4.96 µM | GI50 [26]: 18.1 µM | TGI [26]: 38 µM | GI50 [27]: 4.3 µM | TGI [27]: 26 µM | GI50 [28]: 1.8 µM | TGI [28]: 3.79 µM | GI50 [29]: 2.94 µM | TGI [29]: 9.44 µM | GI50 [30]: 14.3 µM | TGI [30]: 36.3 µM | GI50 [31]: 3.21 µM | TGI [31]: 11.6 µM | GI50 [32]: 2.96 µM | TGI [32]: 12.7 µM | GI50 [33]: 1.96 µM | TGI [33]: 5 µM | GI50 [34]: 13.9 µM | TGI [34]: 32.9 µM | GI50 [35]: 18.3 µM | TGI [35]: 35.5 µM | GI50 [36]: 2.38 µM | TGI [36]: 10.2 µM | GI50 [37]: 1.28 µM | TGI [37]: 3.05 µM | GI50 [38]: 1.92 µM | TGI [38]: 3.82 µM | GI50 [39]: 1.49 µM | TGI [39]: 2.86 µM | GI50 [40]: 2.19 µM | TGI [40]: 5.26 µM | GI50 [41]: 2.91 µM | TGI [41]: 11 µM | GI50 [42]: 2.6 µM | TGI [42]: 9.13 µM | GI50 [43]: 1.04 µM | TGI [43]: 4.14 µM | GI50 [44]: 6.28 µM | TGI [44]: 26.9 µM | GI50 [45]: 11.2 µM | TGI [45]: 27.2 µM | GI50 [46]: 0.507 µM | TGI [46]: 2.79 µM | GI50 [47]: 10.5 µM | TGI [47]: 24.6 µM | GI50 [48]: 17.9 µM | TGI [48]: 52.4 µM | GI50 [49]: 11.8 µM | TGI [49]: 33.7 µM | GI50 [50]: 6.97 µM | TGI [50]: 23.4 µM | GI50 [51]: 3.66 µM | TGI [51]: 26.7 µM | GI50 [52]: 2.09 µM | TGI [52]: 4.53 µM
